# Test system: 889142-216-R-J1-PDC complex spheroid viability
# Experiment: Anticancer human tumor 889142-216-R-J1-PDC patient-derived bladder carcinoma cell line growth inhibition [POLQ]
# Conditions: for IC50: curve of first compound; for viability, T/C: stronger effect = lower value
# Protocol: Multicellular complex tumor spheroid response to Polymerase (POL) inhibitors (novobiocin, ART-558, RP6685) in combination with a variety of drugs and investigational agents in selected tumor cell lines
# The POL inhibitors (novobiocin, ART-558, and RP6685) were evaluated both individually and in combination with standard of care and investigational anticancer small molecules within a complex spheroid model of solid tumors. . Complex spheroids include a stromal component modeled by human endothelial cells (HUVEC) and fibroblasts modeled by human mesenchymal stem cells (MSCs). The concentration ranges selected for each drug and investigational agent were based upon clinically achievable concentrations if the clinical Cmax of the agent was known.
# Compounds. The drugs and investigational agents: novobiocin (NSC847541), ART-558 (NSC835418), RP-6685 (NSC848927), peposertib (NSC802822), ceralasertib (NSC780249), elimusertib (NSC800525), camonsertib (NSC841442), AZD-1390 (NSC803789), olaparib (NSC753686), talazoparib (NSC767125), rucaparib (NSC756644), sotorasib (NSC818433), MRTX-1133 (NSC836407), SN-38 (NSC673596), topotecan (NSC609699), epotoside (NSC141540), doxorubicin (NSC123127), gemcitabine (NSC613327), 5-fluorouracil (NSC19893), paclitaxel (NSC125973), vemurafenib (NSC761431), MSA-2 (NSC828583), SN-011 (NSC837082), adavosertib (NSC754352), prexasertib (NSC758257), carboplatin (NSC241240) and oxaliplatin (NSC266046), were obtained from the National Cancer Institute (NCI) Developmental Therapeutics Program Chemical Repository (21). The FDA-approved anticancer drug set is available from the Developmental Therapeutics Program at https://dtp.cancer.gov/organization/dscb/obtaining/. […] The stock solutions were prepared in dimethyl sulfoxide (DMSO, Sigma-Aldrich, St. Louis, MO, cat. D2650), except for the platinum compounds which were prepared in saline (Quality Biological, Gaithersburg, MD, cat. 114-055-101), at 800-fold the tested concentration and stored at -70 degrees C prior to their use. All drugs and investigational agents were tested over a range starting from a high concentration at or near the clinical Cmax and decreasing in half-log increments. If the clinical Cmax for an agent had not been determined, the highest concentration tested was 10 microM, except for SN-38, which was tested at a high concentration of 1 microM.
# Cell Culture. All cells were maintained in an incubator at 37 degrees C and 5% CO2 with 95% humidity. The PDC lines were cultured according to standard operating procedures established by the NCI PDMR (https://pdmr.cancer.gov). Table 3 of the manuscript, lists the cell lines along with the number of the three cell types plated to form the mct-spheroids and media for tumor cell growth. After thawing, all PDC lines, except 997537-175-T-J1-PDC and 415267-285-R-J2-PDC, were cultured in Matrigel-coated flasks prepared with a working solution of 1X Ham's F-12 nutrient mix, without supplementation (Thermo Fisher Scientific, cat. 11765054), 100 U/mL penicillin-streptomycin (Thermo Fisher Scientific, cat. 15140122), and 2.5% Matrigel (Corning Inc., Corning, NY, cat. 354248) for the first three passages. The two PDC lines 997537-175-T-J1-PDC and 415267-285-R-J2-PDC were cultured on uncoated flasks. The 857933-349-R-J2-PDC line was cultured in 6C/Colon 1B media containing advanced DMEM/F-12 (Thermo Fisher Scientific, cat. 12634028), 10 mM HEPES (Thermo Fisher Scientific, cat. 15630080), 1X GlutaMAX supplement (Thermo Fisher Scientific, cat. 35050061), 0.1 mg/mL primocin (InvivoGen, San Diego, CA, cat. ant-pm-2), 10% defined fetal bovine serum, heat inactivated (HyClone Laboratories Inc., Logan, UT, cat. SH30070.03HI), 50% L-WRN conditioned media (ATCC, cat. CRL-3276), 1.25 mM N-Acetyl-L-cysteine (Sigma-Aldrich, cat. A9165), 10 mM nicotinamide (Sigma-Aldrich, cat. N0636), 1X B-27 supplement (Thermo Fisher Scientific, cat. 17504044), 1X N-2 supplement (Thermo Fisher Scientific, cat. […]
# [1] = second compound 0.0316 µM, first compound 0.0316 µM
# [2] = second compound 0.0316 µM, first compound 0.1 µM
# [3] = second compound 0.0316 µM, first compound 0.316 µM
# [4] = second compound 0.0316 µM, first compound 1 µM
# [5] = second compound 0.0316 µM, first compound 3.16 µM
# [6] = second compound 0.0316 µM, first compound 10 µM
# [7] = second compound 0.1 µM, first compound 0.0316 µM
# [8] = second compound 0.1 µM, first compound 0.1 µM
# [9] = second compound 0.1 µM, first compound 0.316 µM
# [10] = second compound 0.1 µM, first compound 1 µM
# [11] = second compound 0.1 µM, first compound 3.16 µM
# [12] = second compound 0.1 µM, first compound 10 µM
# [13] = second compound 0.316 µM, first compound 0.0316 µM
# [14] = second compound 0.316 µM, first compound 0.1 µM
# [15] = second compound 0.316 µM, first compound 0.316 µM
# [16] = second compound 0.316 µM, first compound 1 µM
# [17] = second compound 0.316 µM, first compound 3.16 µM
# [18] = second compound 0.316 µM, first compound 10 µM
# [19] = second compound 1 µM, first compound 0.0316 µM
# [20] = second compound 1 µM, first compound 0.1 µM
# [21] = second compound 1 µM, first compound 0.316 µM
# [22] = second compound 1 µM, first compound 1 µM
# [23] = second compound 1 µM, first compound 3.16 µM
# [24] = second compound 1 µM, first compound 10 µM
# [25] = second compound 3.16 µM, first compound 0.0316 µM
# [26] = second compound 3.16 µM, first compound 0.1 µM
# [27] = second compound 3.16 µM, first compound 0.316 µM
# [28] = second compound 3.16 µM, first compound 1 µM
# [29] = second compound 3.16 µM, first compound 3.16 µM
# [30] = second compound 3.16 µM, first compound 10 µM
# [31] = second compound 10 µM, first compound 0.0316 µM
# [32] = second compound 10 µM, first compound 0.1 µM
# [33] = second compound 10 µM, first compound 0.316 µM
# [34] = second compound 10 µM, first compound 1 µM
# [35] = second compound 10 µM, first compound 3.16 µM
# [36] = second compound 10 µM, first compound 10 µM
# 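Further: spheroids exposed to compounds for seven days.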
# 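Wherever viability, T/C is given: 100% = DMSO vehicle control viability.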
smiles,measurement,setting,value
CCc1cc2c(N3CCc4c(cc(Cn5ccnc5)cc4-c4cn(C)nc4C(F)(F)F)C3=O)ccnc2c(OC)n1 + COC1C(OC(N)=O)C(O)C(Oc2ccc3c(O)c(NC(=O)c4ccc(O)c(CC=C(C)C)c4)c(=O)oc3c2C)OC1(C)C,IC50,second compound 0.0316 µM,> 10 µM
same,IC50,second compound 0.1 µM,> 10 µM
same,IC50,second compound 0.316 µM,> 10 µM
same,IC50,second compound 1 µM,> 10 µM
same,IC50,second compound 3.16 µM,> 10 µM
same,IC50,second compound 10 µM,> 10 µM
same,"viability, T/C",[1],120%
same,"viability, T/C",[2],109%
same,"viability, T/C",[3],119%
same,"viability, T/C",[4],95.5%
same,"viability, T/C",[5],69.1%
same,"viability, T/C",[6],83%
same,"viability, T/C",[7],101%
same,"viability, T/C",[8],117%
same,"viability, T/C",[9],98.3%
same,"viability, T/C",[10],111%
same,"viability, T/C",[11],105%
same,"viability, T/C",[12],62%
same,"viability, T/C",[13],105%
same,"viability, T/C",[14],106%
same,"viability, T/C",[15],102%
same,"viability, T/C",[16],115%
same,"viability, T/C",[17],96.1%
same,"viability, T/C",[18],64.3%
same,"viability, T/C",[19],112%
same,"viability, T/C",[20],130%
same,"viability, T/C",[21],107%
same,"viability, T/C",[22],102%
same,"viability, T/C",[23],83.9%
same,"viability, T/C",[24],77.7%
same,"viability, T/C",[25],95.6%
same,"viability, T/C",[26],106%
same,"viability, T/C",[27],117%
same,"viability, T/C",[28],94.2%
same,"viability, T/C",[29],95%
same,"viability, T/C",[30],77.9%
same,"viability, T/C",[31],122%
same,"viability, T/C",[32],103%
same,"viability, T/C",[33],112%
same,"viability, T/C",[34],109%
same,"viability, T/C",[35],91.6%
same,"viability, T/C",[36],67.3%
CNCc1ccc(-c2[nH]c3cc(F)cc4c3c2CCNC4=O)cc1 + COC1C(OC(N)=O)C(O)C(Oc2ccc3c(O)c(NC(=O)c4ccc(O)c(CC=C(C)C)c4)c(=O)oc3c2C)OC1(C)C,IC50,second compound 0.0316 µM,> 10 µM
same,IC50,second compound 0.1 µM,> 10 µM
same,IC50,second compound 0.316 µM,> 10 µM
same,IC50,second compound 1 µM,> 10 µM
same,IC50,second compound 3.16 µM,> 10 µM
same,IC50,second compound 10 µM,> 10 µM
same,"viability, T/C",[1],120%
same,"viability, T/C",[2],97.3%
same,"viability, T/C",[3],100%
same,"viability, T/C",[4],105%
same,"viability, T/C",[5],97.2%
same,"viability, T/C",[6],79.5%
same,"viability, T/C",[7],109%
same,"viability, T/C",[8],107%
same,"viability, T/C",[9],96.4%
same,"viability, T/C",[10],93.2%
same,"viability, T/C",[11],98.1%
same,"viability, T/C",[12],85.4%
same,"viability, T/C",[13],103%
same,"viability, T/C",[14],98.6%
same,"viability, T/C",[15],90.6%
same,"viability, T/C",[16],122%
same,"viability, T/C",[17],97.6%
same,"viability, T/C",[18],58.2%
same,"viability, T/C",[19],96.8%
same,"viability, T/C",[20],92.6%
same,"viability, T/C",[21],103%
same,"viability, T/C",[22],94.3%
same,"viability, T/C",[23],82.6%
same,"viability, T/C",[24],84.2%
same,"viability, T/C",[25],89.2%
same,"viability, T/C",[26],106%
same,"viability, T/C",[27],92%
same,"viability, T/C",[28],83.9%
same,"viability, T/C",[29],93.2%
same,"viability, T/C",[30],89.3%
same,"viability, T/C",[31],115%
same,"viability, T/C",[32],98.2%
same,"viability, T/C",[33],88.5%
same,"viability, T/C",[34],83.4%
same,"viability, T/C",[35],104%
same,"viability, T/C",[36],84%
COc1cccc2c1C(=O)c1c(O)c3c(c(O)c1C2=O)CC(O)(C(=O)CO)CC3OC1CC(N)C(O)C(C)O1 (stereo unspecified) + COC1C(OC(N)=O)C(O)C(Oc2ccc3c(O)c(NC(=O)c4ccc(O)c(CC=C(C)C)c4)c(=O)oc3c2C)OC1(C)C,IC50,second compound 0.0316 µM,0.17 µM
same,IC50,second compound 0.1 µM,0.164 µM
same,IC50,second compound 0.316 µM,0.173 µM
same,IC50,second compound 1 µM,0.173 µM
same,IC50,second compound 3.16 µM,0.254 µM
same,IC50,second compound 10 µM,0.219 µM
same,"viability, T/C",[1],59.9%
same,"viability, T/C",[2],68.7%
same,"viability, T/C",[3],33.4%
same,"viability, T/C",[4],2.42%
same,"viability, T/C",[5],0.42%
same,"viability, T/C",[6],0.92%
same,"viability, T/C",[7],53.4%
same,"viability, T/C",[8],67.9%
same,"viability, T/C",[9],36%
same,"viability, T/C",[10],4.22%
same,"viability, T/C",[11],0.75%
same,"viability, T/C",[12],0.62%
same,"viability, T/C",[13],56.7%
same,"viability, T/C",[14],67.5%
same,"viability, T/C",[15],36.8%
same,"viability, T/C",[16],1.29%
same,"viability, T/C",[17],0.94%
same,"viability, T/C",[18],0.7%
same,"viability, T/C",[19],60.6%
same,"viability, T/C",[20],63.1%
same,"viability, T/C",[21],37.3%
same,"viability, T/C",[22],3.64%
same,"viability, T/C",[23],0.4%
same,"viability, T/C",[24],1.06%
same,"viability, T/C",[25],62.3%
same,"viability, T/C",[26],59.1%
same,"viability, T/C",[27],47.5%
same,"viability, T/C",[28],2.54%
same,"viability, T/C",[29],0.84%
same,"viability, T/C",[30],0.98%
same,"viability, T/C",[31],62%
same,"viability, T/C",[32],62.5%
same,"viability, T/C",[33],44.3%
same,"viability, T/C",[34],2.05%
same,"viability, T/C",[35],1.06%
same,"viability, T/C",[36],0.92%
